# From US12157772B2, “Prophylactic agent, onset-suppressing agent or therapeutic agent for progressive immune demyelinating diseases” (NATIONAL CENTER OF NEUROLOGY AND PSYCHIATRY, priority 2016, dated 2024)
# Key:
# [1] = test system: CD4+ T cells, CD19+ B cells, CD19-CD45hi non-B/class II+ antigen-presenting cells infiltrated into the CNS; assay: Eomes and Zbtb20 expression in CNS-infiltrated cells after L-dopa dosing (FACS); format: in vivo, mouse; conditions: CNS at day 32 after the induction
# Description: (§1) Into each CD4-Cre/NR4A2^fl/fl mouse in which monophasic EAE had been induced in a similar manner to the above 1.(3), L-dopa or a placebo (DMSO and PBS) was intraperitoneally injected every other day from day 4 after the induction.
# Next, the brain and the spinal cord were collected from each mouse at day 32 after the induction; and CD4^+ T cells, CD19^+ B cells, or CD19^−CD45^hi non-B/class II^+ antigen-presenting cells infiltrated into the CNS were sorted by FACS using a FACS ARIA II (manufactured by BD Cytometry Systems, Inc.). The respective sorted cells were stained and analyzed regarding the Eomes and Zbtb20 gene expressions. As antibodies used at the detection were an anti-CD4 antibody (manufactured by Biolegend, Inc.), an anti-Eomes antibody (manufactured by eBioscience, Inc.), an anti-CD19 antibody (manufactured by Biolegend, Inc.), and an anti-Zbtb20 antibody (manufactured by Becton Dickinson, Inc.).
# prolactin gene (Prl) = assay: Prolactin gene (Prl) expression in CNS-derived antigen-presenting cells after L-dopa dosing (quantitative real-time PCR); format: in vivo, mouse; conditions: CNS-derived B cells and non-B/class II+ antigen-presenting cells; repeated dosing; FIG. 25
# Method: Next, CD19^+ B cells and CD19^−CD45^hi non-B/class II^+ antigen-presenting cells were separated from the CNS or the spleen of each L-dopa-administered mouse or each intact mouse; and the expression levels of prolactin gene (Prl) in these types of cells were analyzed by using a quantitative real-time PCR assay. As antibodies used at the detection were an anti-CD19 antibody (manufactured by Biolegend, Inc.) and an anti-CD45 antibody (manufactured by Biolegend, Inc.).
# [2] = test system: NR4A2-deficient mouse in which monophasic EAE had been induced; assay: EAE clinical score in NR4A2-deficient mice with induced monophasic EAE; format: in vivo
# Description: as §1
# [3] = test system: CD19+ B cells or CD19-CD45hi non-B/class II+ antigen-presenting cells; conditions: CD19+ B cells and CD19-CD45hi non-B class II+ cells; cultured 24, 48 or 96 h with dopamine; FIG. 22
# Method: CD19^+ B cells or CD19^−CD45^hi non-B/class II^+ antigen-presenting cells were purified from each mouse with the late-stage EAE pathology by sorting by FACS. The respective purified cells were cultured for 24, 48, or 96 h in the absence of dopamine or in the presence of a specific amount of dopamine. Next, the cultured cells were recovered and the prolactin gene (Prl) and Zbtb20 gene expression levels were analyzed by using a quantitative real-time PCR assay.
# [4] = test system: Spleen-derived CD19+ B cells; assay: Zbtb20 expression in spleen-derived CD19+ B cells cultured with LPS and various cytokines; format: cell-based, mouse; conditions: cultured for 24 h in the presence of LPS and cytokine; FIG. 33
# Method: Spleen-derived CD19^+ B cells were isolated and purified by sorting by FACS using a FACS ARIA II (manufactured by BD Cytometry Systems, Inc.). The purified B cells were cultured for 24 h in the presence of LPS and in the co-presence or absence of each cytokine designated in FIG. 33(a). After the culturing, the expression levels of Zbtb20 gene in the respective cells were measured. As antibodies used at the detection were an anti-CD19 antibody (manufactured by Biolegend, Inc.) and an anti-Zbtb20 antibody (manufactured by Becton Dickinson, Inc.).
# [5] = test system: Spleen-derived CD226+ Th cells; assay: Prolactin addition and Eomes protein expression in spleen-derived CD226+ Th cells (FACS); format: cell-based, mouse; conditions: cultured for 48 h in the presence of prolactin; FIG. 16
# Method: Spleen-derived CD226^+ Th cells were cultured for 8 h or 48 h in the absence or presence of prolactin. After the culturing, the CD226^+ Th cells were stained with an anti-CD226 antibody and an anti-Eomes antibody, and a FACS CANTO II (manufactured by BD Cytometry Systems, Inc.) was used to analyze CD226^+Eomes^+ T cells, CD226^+ Eomes^− T cells, and CD226^− T cells. As the antibodies used during the analysis were an anti-CD226 antibody (manufactured by Biolegend, Inc.) and an anti-Eomes antibody (manufactured by Biolegend, Inc.).
# Spleen-derived Th cells = assay: Prolactin addition and Eomes gene expression in spleen-derived Th cells (quantitative real-time PCR); format: cell-based, mouse; conditions: cultured 8 h; recombinant prolactin at low and high concentration; FIG. 15
# Method: Spleen-derived Th cells of each intact mouse were cultured for 8 h in the absence or presence of recombinant prolactin. After the culturing, total RNA was extracted from the Th cells. A first strand cDNA synthesis kit (manufactured by Takara Bio Inc.) was used to synthesize cDNA from the total RNA obtained. A Light Cycler instrument was used under conditions using a Light Cycler-Fast Start DNA Master SYBR Green I kit (manufactured by Roche Diagnostics, Inc.) or an ABI 7300 real-time PCR instrument was used under conditions using a Power SYBR Green Master mix (manufactured by Applied Biosystems, Inc.) to perform a quantitative real-time PCR assay by using commercially available primers (QuantiTect Primer Assay, QT01074332; manufactured by Qiagen, Inc.). The Eomes gene expression levels were corrected based on the expression level of a housekeeping gene GAPDH.
# [6] = test system: Spleen-derived CD226+CD4+ T cells; assay: Culturing of spleen-derived CD226+CD4+ T cells in co-presence of prolactin, Eomes expression (flow cytometer / quantitative real-time PCR); format: cell-based, mouse
# Method: Spleen-derived CD226^+CD4^+ T cells collected from each intact wild-type B6 mouse were cultured for 4 h or 8 h in the absence of prolactin or in the presence of each specific amount of prolactin. The Eomes expression levels in the respective cells after the culturing were measured by using a flow cytometer or a quantitative real-time PCR assay. As antibodies used at the detection were an anti-CD4 antibody (manufactured by Biolegend, Inc.) and an anti-Eomes antibody (manufactured by eBioscience, Inc.).
molecule,measurement,setting,value
"N[C@@H](Cc1ccc(O)c(O)c1)C(=O)O [L-dopa, L-3,4-dihydroxyphenylalanine]",percentage of CD4+Eomes+ T cells in the CD4+ T cells,[1]; FIG. 24(a),decrease markedly
same,percentage of Zbtb20+ cells in the CD19+ B cells,[1]; FIG. 24(b),decrease
same,percentage of Zbtb20+ cells in the CD19-CD45hi non-B/class II+ antigen-presenting cells,[1]; FIG. 24(c),decrease
same,expression levels of prolactin gene,prolactin gene (Prl),decrease
same,cumulative EAE scores,"[2]; intraperitoneally every other day from day 4, right graph of FIG. 23",improvement
same,EAE scores,"[2]; intraperitoneally every other day from day 4 after the induction, FIG. 23",improve markedly
NCCc1ccc(O)c(O)c1 [dopamine],Zbtb20 gene expression levels,[3],decreased markedly
same,prolactin gene expression levels,[3],decreased markedly
IFNα,increase in the expression of Zbtb20 gene,[4],the most remarkable
"prolactin: recombinant prolactin added to Th cell cultures (protein, UniProt P01236 29-227, looked up) Prolactin: LPICPGGAARCQVTLRDLFDRAVVLSHYIHNLSSEMFSEFDKRYTHGRGFITKAINSCHTSSLATPEDKEQAQQMNQKDFLSLIVSILRSWNEPLYHLVTEVRGMQEAPEAILSKAVEIEEQTKRLLEGMELIVSQVHPETKENEIYPVWSGLPSLQMADEESRLSAYYNLLHCLRRDSHKIDNYLKLLKCRIIHNNNC",Eomes expression levels,[5],increased more markedly
same,relative expression level of Eomes relative to that of a housekeeping gene,Spleen-derived Th cells,increased in a prolactin concentration-dependent fashion
same,Eomes gene expression level,"[6]; prolactin at 30 ng/mL, FIG. 8(b)",increased
same,percentage of CD4+Eomes+ T cells,"[6]; prolactin at 30 or 100 ng/mL, cultured 4 h or 8 h, FIG. 7, 8(a)",increased markedly
